Data reported in patent US8680282B2, “Cyclic inhibitors of carnitine palmitoyltransferase and treating cancer” (University Health Network, priority 2007, dated 2014).

Experiments:
human CPT1A = target: T1, human CPT1A (Homo sapiens, UniProt P50416); assay: Human CPT1A LC/MS assay; format: biochemical; conditions: human CPT1A LC/MS assay, dose response format
T1 construct: made in house; host or cells: Saccharomyces cerevisiae (pESC-trp) or cultured mammalian cells (pCDNA3.1); mitochondrial extract
T1 sequence (P50416 1-773): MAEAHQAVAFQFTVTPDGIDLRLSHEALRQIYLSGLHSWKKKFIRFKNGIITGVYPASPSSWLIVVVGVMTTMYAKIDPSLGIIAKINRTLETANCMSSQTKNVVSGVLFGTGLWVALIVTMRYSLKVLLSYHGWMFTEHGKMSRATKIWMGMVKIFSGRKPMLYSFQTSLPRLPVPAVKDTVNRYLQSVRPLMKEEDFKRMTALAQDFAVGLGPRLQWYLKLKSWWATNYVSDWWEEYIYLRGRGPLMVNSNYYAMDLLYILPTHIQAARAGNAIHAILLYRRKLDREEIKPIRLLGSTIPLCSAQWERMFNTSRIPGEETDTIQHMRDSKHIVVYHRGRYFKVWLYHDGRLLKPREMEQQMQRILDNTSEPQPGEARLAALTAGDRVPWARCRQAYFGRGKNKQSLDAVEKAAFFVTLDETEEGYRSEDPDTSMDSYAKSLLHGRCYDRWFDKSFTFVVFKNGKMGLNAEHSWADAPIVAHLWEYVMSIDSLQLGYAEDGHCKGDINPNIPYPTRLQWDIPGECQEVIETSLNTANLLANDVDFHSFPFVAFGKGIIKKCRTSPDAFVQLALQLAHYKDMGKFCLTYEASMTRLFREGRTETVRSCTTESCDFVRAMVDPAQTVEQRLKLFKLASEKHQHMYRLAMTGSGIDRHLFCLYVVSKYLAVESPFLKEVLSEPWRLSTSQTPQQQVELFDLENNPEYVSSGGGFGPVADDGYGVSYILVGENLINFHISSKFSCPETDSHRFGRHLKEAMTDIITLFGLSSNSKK
Excerpt: Nucleotide sequences encoding human CPT1 enzymes were individually cloned into the yeast expression vector pESC-trp at the Cla1 (5′ terminus) and Pac1 (3′ terminus) restriction sites by PCR amplification of the open reading frame using oligonucleotide primers designed to encode the wild-type CPT1 protein sequence. Standard molecular biology techniques were used to transform and express the CPT1 proteins in the yeast Saccharomyces cerevisiae. The yeast cells were lysed by enzymatic degradation of the cell wall by Zymolase, and the mitochondria were isolated by standard biochemical techniques. The integrity of the isolated mitochondria was monitored by determining the activity of succinate dehydrogenase in the mitochondrial preparations. The mitochondrial extracts were stored at −80° C. in buffer containing 10 mM HEPES pH 7.4 and 250 mM sucrose.
Human CPT1 (A, B, C) genes were additionally cloned into the pCDNA3.1 vector individually for expression in cultured mammalian cells. Cells expressing the exogenous CPT1A were identified and grown under standard conditions. Mammalian cells were harvested, and mitochondrial extracts prepared using standard biochemical methods. The mitochondrial extracts were stored at −80° C. in buffer containing 10 mM HEPES pH 7.4 and 250 mM sucrose.
Assays were performed in 96-well plate format. Each 100 μL reaction contained 40 mM KCl, 50 mM TrisHCl pH 7.5, and 250 mM mannitol (Assay Buffer), and 1.6 μg protein of an extract, 20 μM palmitoyl-CoA, 50 μM L-carnitine, and 10 ug/mL BSA. Reactions were incubated at room temperature and stopped after 10 minutes by extraction with 200 μL of water saturated n-butanol containing myristoyl carnitine (500 nM) as an internal standard. The samples were thoroughly mixed, and the phases separated by centrifugation. Samples were prepared for analysis with a 10 fold dilution of the n-butanol phase containing the reaction product palmitoyl carnitine into a 50:50 (acetonitrile:water) solvent for analysis. 5 μL of prepared sample was separated on a Phenomenex Jupiter 5μ C4 reverse-phase column using an Agilent 1100 HPLC with a gradient from 50% acetonitrile (0.5% acetic acid) to 100% acetonitrile and quantified by detection with a Bruker Esquire 3000plus mass spectrometer. The abundance of the palmitoyl carnitine product was determined relative to the internal standard and the actual quantity of palmitoyl carnitine can be determined from a standard curve prepared using the n-butanol solution containing the internal standard.
Compounds were evaluated in two formats, a screening format, and a dose response format. The screening format was performed by adding 25 μL compound in 20% DMSO and Assay Buffer to 25 μL of extract containing […] and Assay Buffer, followed by a 10 minute incubation at room temperature. 50 μL of 40 μM palmitoyl-CoA in Assay Buffer was added to the reaction mixture, mixed and incubated for 10 minutes at room temperature. A negative control for activity was also performed where the carnitine was omitted from the reaction. A positive control for activity was also performed by omitting compound from the solution containing 20% DMSO and Assay Buffer. The reaction mixture was extracted and analyzed as described above. The inhibition by compound was determined by comparing the control relative activity to the relative activity observed in wells containing the compound. Relative activity was determined by subtracting the relative intensity (area palmitoyl carnitine/area myristoyl carnitine) observed in the negative control from the relative intensity observed in the experimental well, and dividing by the relative activity observed in the positive control.
[formula] Compound characterization by dose response format was performed using the above described assay conditions and a 16 point compound titration in 2 fold compound dilution steps. The DMSO concentration was kept constant at 20% (v/v) for all compound concentrations.

[1] = tested on: cancer cell lines from breast, lung, colon, brain, prostate and ovarian cancer; assay: Cancer cell growth inhibition, SRB assay, cell line panel; format: cell-based, human; conditions: cell lines of Tables 2 and 3; for S11: at 10 μM, all lines other than MDA-231, A549, H460, HCT-8
Protocol: Human cancer cells (MCF-7, H358, H460, HCT116 p53^+/+, HCT116 p53^−/−, A172, PC-3, DU-145 and SW626) were maintained in DMEM medium containing 10% Fetal Bovine Serum (FBS) (Invitrogen, Burlington, ON, Canada) and normal cells HMEC, 184A1, NHBE and PrEC were cultured in MEGM, MEGM plus transferring and cholera toxin, BEGM and PrEGM supplemented with various growth factors (Cambrex, Charles city, Iowa, USA), respectively.
Compounds of Examples S1 to S30, and 4-(carboxymethyl)-4-(6-(3-hexyloxy)phenoxy)hexanoamido)-1,1-dimethylpiperidinium 2,2,2-trifluoroactate (“Compound A”) were tested in this example. Each of the tested compounds was dissolved in DMSO and further diluted in cell culture medium for the experiments performed. […] Cell viability was assessed by Sulforhodamine B (SRB) assay at Day 6.
Sulforhodamine B (SRB) (Sigma, Oakville, ON, Canada) is a water-soluble dye that binds to the basic amino acids of the cellular proteins. […] Absorbance was read at 570 nm on a spectrophotometer. […] Growth inhibition (%) was determined as percentage of cells remaining compared to the DMSO-treated cells as control.
All of the compounds shown in Tables 2 and 3 had activity against at least one cell line (“NT” means not tested; and “NE” means no activity at 10 micromolar—activity at higher concentrations was not measured).

**Q.** Which IC50 (human CPT1A) does the source give for `CCCCCc1ccc(S(=O)(=O)NC2(CC(=O)O)CCCN(C)C2)cc1` (centres unmarked) [Example S11, 3-(carboxymethyl)-1-methyl-3-(4-pentylphenylsulfonamido)piperidinium 2,2,2-trifluoroacetate] here?
**A.** 1 to 10 µM

**Q.** And the “activity against cancer cell lines” value [1]?
**A.** did not exihibit activity at 10 μM
